“And” between values parts separate entries of the source, which are not always exact repeats. Identical values can stand only once.

One test deals with human sdLDL. Description: Copper-induced sdLDL oxidation, TBARS (Example 7). The test is classed as biochemical. How it is done: (§1) An experiment to study the antioxidant effect of EPA in LDL and small dense […] performed. […] Fenofibrate, gemfibrozil, and niacin were purchased from Sigma-Aldrich. […] Vitamin E was also incubated with sample aliquots as a positive control.
The test system of another test is unfractionated LDL. Description: Copper-induced oxidation of unfractionated LDL, TBARS (Example 7). The test is classed as biochemical, human. The note with it: 10 μM, 1 hr. As for the experimental part:
as §1

Test [1] can be described thus: X-ray diffraction of cholesterol domains in POPC/cholesterol model membranes, C/P 1.5:1 (Example 9). The note with it: drug-to-phospholipid mole ratio 1:30, C/P 1.5:1. How it is done:
Multilamellar vesicles (MLVs) were prepared as binary mixtures that include palmitoyloleoylphosphatidylcholine (POPC) (1.0 mg total phospholipid per sample) and cholesterol at an elevated cholesterol-to-phospholipid (C/P) mole ratio of 1.5:1. […] Samples were shell-dried under nitrogen gas and placed under vacuum for 3 hours to remove residual solvent at room temperature. After desiccation, each sample was resuspended in saline buffer (0.5 mM HEPES, 154 mM NaCl, pH 7.3) to yield a final phospholipid concentration of 2.5 mg/mL. Lipid suspensions were then vortexed for 3 minutes at ambient temperature to form MLVs.
Briefly, a 100 μL aliquot of each MLV preparation (containing 250 μg MLV) was transferred to a Lucite® sedimentation cell fitted with an aluminum foil substrate designed to collect MLVs into a single membrane pellet upon centrifugation. Samples were then loaded into a Sorvall AH-629 swinging bucket rotor (DuPont Corp., Wilmington, Del.) and centrifuged at 35,000 g, 5° C., for 90 minutes.
After centrifugal orientation, sample supernatants were aspirated and aluminum foil substrates, each supporting a single membrane pellet, were removed from the sedimentation cells. Sample pellets were dried for 5-10 minutes at ambient conditions, mounted onto curved glass supports, and placed in hermetically-sealed, brass or glass containers (for immediate analysis or temporary storage, respectively). All x-ray diffraction experiments were conducted at 20° C., 74% relative humidity. The latter was established by exposing membrane samples to saturated solutions of […] (K2C4H4O6.½H2O) for at least 1 hour prior to experimental analysis.
Oriented membrane samples were aligned at grazing incidence with respect to a collimated, mono-chromatic CuKα x-ray beam (Kα1 and Kα2 unresolved; λ=1.54 Å) produced by a Rigaku Rotaflex RU-200, high-brilliance microfocus generator (Rigaku-MSC, The Woodlands, Tex.) as previously described (Mason et al., Biophys. J., vol. 55(4), pages 769-778 (1989)). The samples were initially subjected to x-ray diffraction analysis at least 12 hours after formation of the membrane pellets and retested for up to several days. Analytical x-rays were generated by electron bombardment of a rotating copper anode and are filtered through a thin nickel foil to provide monochromatic radiation (λ=1.54 Å). Collimation of the x-ray beam was achieved using a single Franks mirror. […]
The d-space for any given membrane multi bilayer is a measurement of the unit cell periodicity of the membrane lipid bilayer (e.g., the distance from the center of one lipid bilayer to the next including surface hydration), and is calculated from Bragg's Law, hλ=2d sin θ, where h is the diffraction order, λ is the wavelength of the x-ray radiation (1.54 Å), d is the membrane lipid bilayer unit cell periodicity, and θ is the Bragg angle equal to one-half the angle between the incident beam and scattered beam.
The presence of cholesterol domains in a given membrane sample results in the production of distinct Bragg (diffraction) peaks having singular periodicity values of 34 and 17 Å (typically referred to as first- and second-order cholesterol domain peaks). Under the specific temperature and relative humidity conditions established for these experiments, the second-order, 17 Å cholesterol domain peak was well-delineated from other, neighboring cholesterol and phospholipid diffraction peaks and was thus used to quantitate relative cholesterol domain peak intensity. […]

A further test relates to sdLDL. Description: Glucose-induced sdLDL oxidation, MDA/TBARS (Example 10). It is filed as biochemical, human. The note with it: 10.0 μM, glucose 200 mg/dL. How it is done: Vitamin E (α-tocopherol) purchased from Sigma-Aldrich was prepared in ethanol at 1.0 mM (ε=3.06×10^4 M^−1 cm^−1 at 294 nm) prior to experimental use. Test compounds were further diluted in ethanol or aqueous buffer as needed. Phosphate Buffered Saline (PBS) purchased from Sigma-Aldrich was prepared in double distilled water at 10 mM (138 mM NaCl, 2.7 mM KCl, pH 7.4). […] Lipid oxidation was measured by the colorimetric detection of malondialdehyde (MDA), a marker of oxidative stress.

Take `CC/C=C\C/C=C\C/C=C\C/C=C\C/C=C\CCCC(=O)O` [EPA, cis-5,8,11,14,17-eicosapentaenoic acid]: the “effect on sdLDL oxidation” value with human sdLDL (10.0 μM, after 4 hours, vs vehicle or DHA) was “significantly inhibited sdLDL oxidation”. Also, the “inhibition of sdLDL oxidation (TBARS formation)” value in the test with human sdLDL (each agent at 10 μM, 1 hr, vs vehicle, 10 µM) is 93±2% and 92±8%. The “inhibition of TBARS formation” value in the test on unfractionated LDL (unfractionated LDL, vs vehicle) is greater than 90%. Further, the “reduction in cholesterol domain peaks vs vehicle” value in test [1] worked out at 65%. The same compound returned an MDA formation in the test with sdLDL of 0.2 ± 0.1 µM. The “inhibition of sdLDL oxidation” value in the test on sdLDL (vs vehicle controls) is 94%.
For the compound `O=C(O)c1cccnc1` [Niacin, nicotinic acid], the “effect on sdLDL oxidation” value in the test with human sdLDL (10 μM, 1 hr, vs vehicle-treated controls) is reported as “no significant effect”. In addition, in the test on unfractionated LDL (vs vehicle-treated controls), the “effect on unfractionated LDL oxidation” value was “no significant effect”. Moreover, in test [1], the “effect on cholesterol domains” value is on record as “no significant changes in cholesterol domain size”. In the test with sdLDL, the “effect on glucose-induced sdLDL oxidation” value is reported as “did not inhibit”.

The record behind these values is patent US11446269B2, “Methods of reducing or preventing oxidation of small dense LDL or membrane polyunsaturated fatty acids” (Amarin Pharmaceuticals Ireland Limited, priority 2014, dated 2022).
